Where two headings read alike, the source gives them in different places.
Assays:
Type in all cases: biochemical
[1] = target: SRPK1 (Homo sapiens, UniProt Q96SB4); assay: Kinase screen: SRPK1 assay
Protocol: (§1) Generally, the same procedure was used for all assays. Since the total assay volume was 25.5 microliters, 0.5 microliters of inhibitors at 51× assay concentration were added to the plates before any other addition.
(§2) The basic procedure was to add 0.5 microliters inhibitor/control in DMSO to plate. Fifteen microliters of enzyme/substrate/buffer mix were added and incubated for 5 min. Ten microliters MgATP at the relevant concentration were added and incubated for 30 min. The assay was stopped by adding 5 microliters of 3% orthophosphoric acid. The assay was transferred to a p81 filter plate and read in a scintillation counter of 30 sec/well. Note that this assay procedure was not followed for MKK1, which instead involved a two-step assay, and PKC alpha, which required the addition of lipid vesicles.
SRPK1 assay: 5-20 mU of SRPK1 (diluted in 50 mM Tris (pH 7.5), 0.1 mM EGTA, 1 mg/ml BSA, 0.1%, b-Mercaptoethanol) was assayed against substrate peptide ([…]) (SEQ ID NO: 25) in a final volume of 25.5 μl containing 50 mM Tris (pH 7.5), 0.1 mM EGTA, 0.1%, b-Mercaptoethanol, 300 μM substrate peptide, 10 mM magnesium acetate and 0.05 mM [33P-g-ATP] (500-1000 cpm/pmole) and incubated for 30 mins at room temperature. Assays were stopped by addition of 5 μl of 0.5M (3%) orthophosphoric acid. Assays were harvested onto P81 Unifilter plates using a wash buffer of 50 mM orthophosphoric acid.

[2] = target: S6K1 (Homo sapiens, UniProt P23443); assay: Kinase screen: S6K1/P70 S6K assay
Protocol: as §1, §2
(50-1000 cpm/pmole) and incubated for 30 min at room temperature. Assays were stopped by addition of 5 μl of 0.5 M (3%) orthophosphoric acid and then harvested onto P81 Unifilter plates with a wash buffer of 50 mM orthophosphoric acid.

[3] = target: PIM3 (Homo sapiens, UniProt Q86V86); assay: Kinase screen: PIM3 assay
Protocol: as §1, §2
PIM3 assay: PIM3 (5-20 mU diluted in 50 mM Tris pH 7.5, 0.1 mM EGTA, 0.1% b-mercaptoethanol, 1 mg/ml BSA) was assayed against a substrate peptide ([…]) (SEQ ID NO: 23) in a final volume of 25.5 μl containing 50 mM Tris pH 7.5, 0.05% b-mercaptoethanol, 300 μM substrate peptide, 10 mM magnesium acetate and 0.02 mM [33P-g-ATP] (50-1000 cpm/pmole) and incubated for 30 min at room temperature. Assays were stopped by addition of 5 μl of 0.5 M (3%) orthophosphoric acid and then harvested onto P81 Unifilter plates with a wash buffer of 50 mM orthophosphoric acid.

[4] = target: T1, SGK1 (Homo sapiens, UniProt O00141); assay: Kinase screen: SGK assay
T1 sequence (O00141 1-431): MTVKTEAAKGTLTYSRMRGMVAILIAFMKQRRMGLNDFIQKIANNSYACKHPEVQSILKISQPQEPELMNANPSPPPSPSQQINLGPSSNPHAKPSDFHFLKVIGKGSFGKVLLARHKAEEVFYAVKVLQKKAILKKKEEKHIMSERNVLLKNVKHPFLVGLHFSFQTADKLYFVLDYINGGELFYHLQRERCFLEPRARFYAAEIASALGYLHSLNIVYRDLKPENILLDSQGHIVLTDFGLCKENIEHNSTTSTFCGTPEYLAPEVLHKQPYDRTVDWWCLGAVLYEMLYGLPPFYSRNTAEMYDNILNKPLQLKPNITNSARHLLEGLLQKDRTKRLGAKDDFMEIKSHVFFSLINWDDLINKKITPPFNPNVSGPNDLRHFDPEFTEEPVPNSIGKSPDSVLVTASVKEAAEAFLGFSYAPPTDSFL
Protocol: as §1, §2
SGK assay: SGK (5-20 mU diluted in 20 mM MOPS pH 7.5, 1 mM EDTA, 0.01% Brij35, 5% glycerol, 0.1% b-mercaptoethanol, 1 mg/ml BSA) was assayed against a modified Crosstide peptide […] (SEQ ID NO: 4) in a final volume of 25.5 μl containing 8 mM MOPS pH 7.0, 0.2 mM EDTA, 30 μM substrate peptide, 10 mM magnesium acetate and 0.02 mM [33P-g-ATP] (50-1000 cpm/pmole) and incubated for 30 min at room temperature. Assays were stopped by addition of 5 μl of 0.5 M (3%) orthophosphoric acid and then harvested onto P81 Unifilter plates with a wash buffer of 50 mM orthophosphoric acid.

[5] = target: PKCα (Homo sapiens, UniProt P17252); assay: Kinase screen: PKCa assay
Protocol: as §1, §2
PKCa assay: PKCa (5-20 mU diluted in 20 mM Hepes pH 7.4, 0.03% Triton X-100) was assayed against Histone H1 in the presence of PtdSerine and DAG (0.1 mg/ml. and 10 μg/ml) and 0.1 mM CaCl2. The assay was carried out in a final volume of 25.5 μl containing 20 mM Hepes pH 7.4, 0.03% Triton X-100, 0.1 mg/ml Histone H1, 10 mM magnesium acetate and 0.02 mM[33P-g-ATP] (50-1000 cpm/pmole) and incubated for 30 min at room temperature. Assays were stopped by addition of 5 μl of 0.5 M (3%) orthophosphoric acid and then harvested onto P81 Unifilter plates with a wash buffer of 50 mM orthophosphoric acid.
PtdSer/DAG preparation: PtdSer stock was 10 mg/ml in MeOH/Chloroform (1:2). The required amount was dried down and re-suspended in an appropriate volume of 10 mM Hepes pH 7.4, vortexed, and briefly sonicated (2×10^−15 seconds at 10-15 seconds apart). DAG stock was 10 mg/ml in MeOH/chloroform (1:2). The required amount was dried down and sonicated PtdSer solution was added, vortexed and sonicated.

[6] = 10 micromolar compound, read-out: mean activity remaining (as a percentage of the original activity), SRPK1
[7] = 10 micromolar compound, read-out: mean activity remaining (as a percentage of the original activity), S6K1
[8] = 10 micromolar compound, read-out: mean activity remaining (as a percentage of the original activity), PIM3
[9] = 10 micromolar compound, read-out: mean activity remaining (as a percentage of the original activity), SGK1
[10] = 10 micromolar compound, read-out: mean activity remaining (as a percentage of the original activity), PKCa

Chain of SRPK1 (Q96SB4 whole entry, species assumed): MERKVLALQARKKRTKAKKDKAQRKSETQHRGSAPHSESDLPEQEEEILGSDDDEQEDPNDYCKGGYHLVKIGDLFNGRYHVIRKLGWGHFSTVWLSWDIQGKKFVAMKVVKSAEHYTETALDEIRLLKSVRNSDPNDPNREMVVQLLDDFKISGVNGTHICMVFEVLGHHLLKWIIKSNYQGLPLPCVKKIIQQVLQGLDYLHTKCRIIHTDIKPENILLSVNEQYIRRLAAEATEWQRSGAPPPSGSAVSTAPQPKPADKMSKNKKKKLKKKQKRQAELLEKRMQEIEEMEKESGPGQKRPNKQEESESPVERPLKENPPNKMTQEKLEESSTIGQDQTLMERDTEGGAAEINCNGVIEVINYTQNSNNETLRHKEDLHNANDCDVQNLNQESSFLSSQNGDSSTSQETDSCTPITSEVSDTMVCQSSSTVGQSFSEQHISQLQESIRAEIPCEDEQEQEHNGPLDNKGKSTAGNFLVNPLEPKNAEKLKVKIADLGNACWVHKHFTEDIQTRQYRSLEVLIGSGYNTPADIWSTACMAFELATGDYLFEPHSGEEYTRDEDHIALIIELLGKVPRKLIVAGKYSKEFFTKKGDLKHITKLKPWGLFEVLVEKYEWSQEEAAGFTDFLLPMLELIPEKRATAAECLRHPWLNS
Chain of S6K1 (P23443 whole entry, species assumed): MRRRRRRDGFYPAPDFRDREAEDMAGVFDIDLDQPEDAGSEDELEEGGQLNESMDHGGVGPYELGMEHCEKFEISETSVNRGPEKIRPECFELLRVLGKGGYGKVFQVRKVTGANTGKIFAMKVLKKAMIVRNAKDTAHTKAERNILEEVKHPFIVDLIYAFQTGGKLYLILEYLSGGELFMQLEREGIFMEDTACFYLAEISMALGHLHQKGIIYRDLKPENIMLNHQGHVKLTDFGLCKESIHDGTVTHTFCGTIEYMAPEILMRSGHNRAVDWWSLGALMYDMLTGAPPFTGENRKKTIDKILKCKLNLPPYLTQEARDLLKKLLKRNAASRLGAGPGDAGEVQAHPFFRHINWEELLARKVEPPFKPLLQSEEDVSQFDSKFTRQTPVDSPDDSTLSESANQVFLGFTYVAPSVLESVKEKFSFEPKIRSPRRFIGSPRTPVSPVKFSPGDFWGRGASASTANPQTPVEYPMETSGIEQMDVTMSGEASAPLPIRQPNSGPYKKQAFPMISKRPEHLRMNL

CC(C)c1cnn2c(NCc3ccccc3)cc(NCCCCCCCN)nc12 [BS-181] gave a remaining activity at 10 µM ([1]; SRPK1, 10 μM, read-out: Mean Remaining Enzyme Activity (%)) of 44%, a remaining activity at 10 µM ([2]; S6K1, 10 μM, read-out: Mean Remaining Enzyme Activity (%)) of 95% and a remaining activity at 10 µM ([3]; PIM3, 10 μM, read-out: Mean Remaining Enzyme Activity (%)) of 78%. It also gave a remaining activity at 10 µM ([4]; SGK1, 10 μM, read-out: Mean Remaining Enzyme Activity (%)) of 42% and a remaining activity at 10 µM ([5]; PKCα, 10 μM, read-out: Mean Remaining Enzyme Activity (%)) of 98%.
C=C[C@H](CO)Nc1cc(NCc2ccccc2)n2ncc(C(C)C)c2n1 [ICEC0065] was tested, and the remaining activity at 10 µM [1, 6] was 84%, the remaining activity at 10 µM [2, 7] was 78% and the remaining activity at 10 µM [3, 8] was 100%. The remaining activity at 10 µM [4, 9] was 84% and the remaining activity at 10 µM [5, 10] was 101%.
Compound CC[C@H](CO)Nc1cc(NCc2ccccc2)n2ncc(C(C)C)c2n1 [ICEC0067] has a remaining activity at 10 µM [1, 6] of 50%, a remaining activity at 10 µM [2, 7] of 74% and a remaining activity at 10 µM [3, 8] of 96%. It also gave a remaining activity at 10 µM [4, 9] of 89% and a remaining activity at 10 µM [5, 10] of 93%.
CC(C)c1cnn2c(NCc3ccccc3)cc(N[C@@H](CO)[C@H](O)CO)nc12 [ICEC0318, (3S)-3-(7-(Benzylamino)-3-isopropylpyrazolo[1,5-a]pyrimidin-5-ylamino)butane-1,2,4-triol] gave a remaining activity at 10 µM [1, 6] of 62%, a remaining activity at 10 µM [2, 7] of 77% and a remaining activity at 10 µM [3, 8] of 101%. The remaining activity at 10 µM [4, 9] was 92% and the remaining activity at 10 µM [5, 10] was 96%.
In the case of CC(C)c1cnn2c(NCc3ccccc3F)cc(NCCCCCN)nc12 [ICEC-0232], the “mean activity remaining (as a percentage of the original activity), SRPK1” value ([1]; 10 micromolar compound) is reported as 38%, the “mean activity remaining (as a percentage of the original activity), S6K1” value ([2]; 10 micromolar compound) is reported as 42% and the “mean activity remaining (as a percentage of the original activity), PIM3” value ([3]; 10 micromolar compound) is reported as 76%. The “mean activity remaining (as a percentage of the original activity), SGK1” value ([4]; 10 micromolar compound) was 50% and the “mean activity remaining (as a percentage of the original activity), PKCa” value ([5]; 10 micromolar compound) was 80%.

Reference: patent US8067424B2, “Selective inhibitors for cyclin-dependent kinases” (Emory University, priority 2007, dated 2011)
